Data taken from US9771394B2, “Antimicrobial polymyxins for treatment of bacterial infections” (priority 2014, dated 2017).
Read-outs that look alike come from different tables or passages of the source. Starred links: 1 amine or outer side, 2 acyl side, 3 side chain; linkers in the order of their positions; H or OH if unused. Positions of bridges follow the written chain, without caps; N, C: chain ends. Non-standard residues stand in square brackets, D forms with d. Residues, ends and D or L forms follow the SMILES beside them. ξ: configuration not given here. *: point of attachment. X8 = NCC[C@H](OC(=O)Cc1ccc(-c2ccccc2)cc1)C(=O)*; X6 = NCC[C@H](OC(=O)c1ccc(-c2ccccc2)cc1)C(=O)*; X9 = CCC(C)(C)C(=O)OCCC(=O)O[C@@H](CCN)C(=O)*; X3 = CCCCCCCC(=O)O[C@@H](CCN)C(=O)*; X11 = CCCCOP(=O)(CC(=O)*)OCCCC; Thr(3ξ) = CC(O)[C@H](N)C(=O)O; X10 = O=C(C1CNCCN1[*:1])[*:2]; X7 = CC(=O)O[C@@H](CCN)C(=O)*; X1 = CCC(C)(C)C(=O)OCCC(=O)*; X2 = CCCC(C)OC(=O)CCC(=O)*; Dab = NCC[C@H](N)C(=O)O; X4 = CCCCOC(=O)CCC(=O)*; Dap = NC[C@H](N)C(=O)O

Legend:
[1] = system: P. aeruginosa PAE 1001; type: cell-based, Pseudomonas aeruginosa
Excerpt: (§1) In vitro activity of compounds provided herein may be assessed by standard testing procedures such as the determination of minimum inhibitory concentration (MIC, μg/mL) just as described in “Methods for Dilution Antimicrobial Susceptibility Tests for Bacteria That Grow Aerobically; Approved Standard—Ninth Edition,” published in 2012 by the Clinical and Laboratory Standards Institute, Wayne, Pa., USA. Thus, bacterial colonies grown overnight on Mueller-Hinton Agar plate were selected and suspended in sterile saline to a turbidity of about 80% transmittance, as measured by a spectrophotometer. The suspension was diluted 200-fold with cation-adjusted Mueller-Hinton broth to serve as the inoculum for testing. Two-fold serial dilutions of the test compound were performed in 96-well master plate to arrive at desired concentration. Samples of 10 microliter from each well of the master plate were transferred into respective wells of 96-well assay plate. Bacterial inoculum (90 microliter) was introduced into each well of the assay plate. The assay plate was placed in the incubator at 35° C. for about 24 h (without agitation) followed by the MIC determination. MIC values were determined based on the presence or absence of bacterial growth in wells at the given test agent concentration. MIC value is defined as the lowest concentration of test antibiotic that prevents visible bacterial growth.
(§2) The useful activity of exemplary compounds described herein against Gram-negative pathogens Pseudomonas aeruginosa, Escherichia coli, or Klebsiela pneumoniae is illustrated by the MIC data of Table 1.

[2] = system: E. coli WECO 1003; type: cell-based, Escherichia coli
Excerpt: as §1, §2

[3] = system: K. pneumoniae KPN1004; type: cell-based, Klebsiela pneumoniae
Excerpt: as §1, §2

[4] = system: P. aeruginosa; test: P. aeruginosa thigh infection mouse model, IV dosing; type: in vivo, Pseudomonas aeruginosa; details: CFU change at 12 h vs no treatment control, PMB values in parenthesis side-by-side
Excerpt: (§3) A lower ED50 value indicates a higher therapeutic efficacy of the drug. The number of surviving animals (from the total number of infected animals used at a given drug dose) is another indicator of efficacy. […] In thigh and lung infection models, a greater reduction in the bacterial colony-forming units (CFU) indicates stronger beneficial therapeutic effect (more bacterial eradication), while a lower CFU reduction or an increase in CFU value indicates a lower effect (less bacterial eradication), or an absence of the therapeutic effect.

[5] = Stability in human plasma at 37° C.; type: in vitro ADME; details: for remaining at 4 h, 25 μM / remaining at 1 h, 25 μM: human, plasma
Experimental: Exemplary compounds of this invention were tested for stability in human plasma at 37° C., replicating in vivo conditions of mammalian blood. Plasma stability for select compounds was performed as follows. Human plasma (K2 EDTA) was obtained from Bioreclamation. The assay was carried out in 96-well microtiter plates. Test compounds were incubated in duplicate at 37° C. in the presence of plasma. Reaction mixtures (25 μL) contained a final concentration of 25 μM test compound. The extent of metabolism was calculated as the disappearance of the test compound over time. Eucatropine was included as a positive control to verify assay performance. At each given time point, 100 μL of quench solution (100% MeCN with 0.1% HCOOH) with internal standard was transferred to each well. Plates were sealed, vortexed, and centrifuged at 4° C. for 15 minutes at 4,000 rpm. The supernatant was transferred to fresh plates for LC/MS/MS analysis. The formation of a potential metabolite was monitored in all samples. The samples were analyzed on LC/MS/MS using an AB Sciex API 4000 instrument, coupled to a Shimadzu LC-20AD LC Pump system. Analytical samples were separated using a Waters Atlantis T3 dC18 reverse phase HPLC column (20 mm×2.1 mm) at […] a flow rate of 0.5 mL/min, eluting with 0.1% aq. HCOOH and 0.1% HCOOH in MeCN (using gradient from 2% to 98% of the latter). Remaining test compounds were quantified via MS/MS ion current.

[6] = system: E. coli; test: E. coli septicemia (systemic) mouse model, IV dosing; type: in vivo, Escherichia coli; details: PMB values are side-by-side comparator
Excerpt: as §3

[7] = system: P. aeruginosa; test: P. aeruginosa lung infection (pneumonia) mouse model, SC dosing; type: in vivo, Pseudomonas aeruginosa
Excerpt: as §3

[8] = system: human HK-2 cell; test: Human HK-2 cell cytotoxicity assay (in vitro nephrotoxicity); type: cell-based
Excerpt: Nephrotoxicity of polymyxins could be determined in vitro using human renal […] (HK-2) cytotoxicity assay, analogously to that described, for example, by Keirstead et al. in Toxicol. Sci., 2014, vol. 137, pp. 278-291. In vivo, nephrotoxicity could be determined using urine biomarker assays, such as clinically validated neutrophil gelatinase-associated lipocalin (NGAL) assay described, for example by Devarajan in Scand. J. Clin. Lab. Invest. Suppl., 2008, vol. […], pp. 89-94.

[9] = 35° C., about 24 h, cation-adjusted Mueller-Hinton broth

SMILES | Antibacterial activity (MIC) P. aeruginosa PAE 1001 ([1]; PAE 1001, 24 h) [µg/mL] | Antibacterial activity (MIC) E. coli WECO 1003 ([2]; WECO 1003, 24 h) [µg/mL] | Antibacterial activity (MIC) K. pneumoniae KPN1004 ([3]; KPN1004, 24 h) [µg/mL] | other results
CCCCCCCC(=O)O[C@@H](CCN)C(=O)N[C@H](C(=O)N[C@@H](CCN)C(=O)N[C@H]1CCNC(=O)[C@H](C(C)O)NC(=O)[C@H](CCN)NC(=O)[C@H](CCN)NC(=O)[C@H](CC(C)C)NC(=O)[C@@H](Cc2ccccc2)NC(=O)[C@H](CCN)NC1=O)C(C)O (stereo partly drawn) [Reference Example 1, reference compound] (X3-[Thr(3ξ)][Dab][Dab][Dab][dF]L[Dab][Dab][Thr(3ξ)]; lactam 3-C) | 8 | 4 | 2 | P. aeruginosa Thigh model, IV dosing ΔlogCFU at 5 mg/kg [4]: −1.92; formation of the expected metabolite (compound of Example 44) by MS analysis [5]: no formation; metabolism in human plasma [5]: no discernable metabolism; remaining at 4 h, 25 μM [5]: 100%
CCCC(C)OC(=O)CCC(=O)N1CCNCC1C(=O)N[C@H](C(=O)N[C@@H](CCN)C(=O)N[C@H]1CCNC(=O)[C@H](C(C)O)NC(=O)[C@H](CCN)NC(=O)[C@H](CCN)NC(=O)[C@H](CC(C)C)NC(=O)[C@@H](Cc2ccccc2)NC(=O)[C@H](CCN)NC1=O)C(C)O (stereo partly drawn) [Example 31] (X2-[X10][Thr(3ξ)][Dab][Dab][Dab][dF]L[Dab][Dab][Thr(3ξ)]; lactam 4-C) | 8 | 8 | 8 | 
CC(C)C[C@@H]1NC(=O)[C@@H](Cc2ccccc2)NC(=O)[C@H](CCN)NC(=O)[C@@H](NC(=O)[C@H](CCN)NC(=O)[C@@H](NC(=O)[C@H](CCN)OC(=O)c2ccc(-c3ccccc3)cc2)C(C)O)CCNC(=O)[C@H](C(C)O)NC(=O)[C@H](CCN)NC(=O)[C@H](CCN)NC1=O (stereo partly drawn) [Example 3] (X6-[Thr(3ξ)][Dab][Dab][Dab][dF]L[Dab][Dab][Thr(3ξ)]; lactam 3-C) | 4 | 4 | 4 | 
CCCC(C)OC(=O)CCC(=O)N[C@@H](CCN)C(=O)N[C@H](C(=O)N[C@@H](CCN)C(=O)N[C@H]1CCNC(=O)[C@H](C(C)O)NC(=O)[C@H](CCN)NC(=O)[C@H](CCN)NC(=O)[C@H](CC(C)C)NC(=O)[C@@H](Cc2ccccc2)NC(=O)[C@H](CCN)NC1=O)C(C)O (stereo partly drawn) [Example 18] (X2-[Dab][Thr(3ξ)][Dab][Dab][Dab][dF]L[Dab][Dab][Thr(3ξ)]; lactam 4-C) | 2 | 2 | 4 | E. coli Systemic model, IV dosing ED50 [6]: 7.5 mg/kg; number (A) of surviving animals out of total (B) mice, A/B ([6]; at 5 mg/kg): 3/6; P. aeruginosa Thigh model, IV dosing ΔlogCFU at 5 mg/kg [4]: −1.29; Relative CFU count, vs. PMB ([7]; mouse lung infection, 10 mg/kg): 4.8 × 10^−6; P. aeruginosa Lung infection model ΔlogCFU at 10 mg/kg ([7]; mouse, CFU change at 24 h vs starting inoculum): −2.70; remaining at 1 h, 25 μM [5]: 66%; remaining at 4 h, 25 μM [5]: 18%; HK-2 cytotoxicity class [8]: Class 4; IC50 [8]: > 200 µM
CCCCOP(=O)(CC(=O)N[C@@H](CCN)C(=O)N[C@H](C(=O)N[C@@H](CCN)C(=O)N[C@H]1CCNC(=O)[C@H](C(C)O)NC(=O)[C@H](CCN)NC(=O)[C@H](CCN)NC(=O)[C@H](CC(C)C)NC(=O)[C@@H](Cc2ccccc2)NC(=O)[C@H](CCN)NC1=O)C(C)O)OCCCC (stereo partly drawn) [Example 30] (X11-[Dab][Thr(3ξ)][Dab][Dab][Dab][dF]L[Dab][Dab][Thr(3ξ)]; lactam 4-C) |  |  |  | Antibacterial activity (MIC) P. aeruginosa PAE 1001 [1, 9]: 2 µg/mL; Antibacterial activity (MIC) E. coli WECO 1003 [2, 9]: 2 µg/mL; Antibacterial activity (MIC) K. pneumoniae KPN1004 [3, 9]: 4 µg/mL
CCCCOC(=O)CCC(=O)N[C@@H](CCN)C(=O)N[C@H](C(=O)N[C@@H](CCN)C(=O)N[C@H]1CCNC(=O)[C@H](C(C)O)NC(=O)[C@H](CCN)NC(=O)[C@H](CCN)NC(=O)[C@H](CC(C)C)NC(=O)[C@@H](Cc2ccccc2)NC(=O)[C@H](CCN)NC1=O)C(C)O (stereo partly drawn) [Example 7] (X4-[Dab][Thr(3ξ)][Dab][Dab][Dab][dF]L[Dab][Dab][Thr(3ξ)]; lactam 4-C) | 4 | 4 | 2 | P. aeruginosa Thigh model, IV dosing ΔlogCFU at 5 mg/kg [4]: −0.50; remaining at 1 h, 25 μM [5]: 49%; remaining at 4 h, 25 μM [5]: 15%
CC(C)C[C@@H]1NC(=O)[C@@H](Cc2ccccc2)NC(=O)[C@H](CCN)NC(=O)[C@@H](NC(=O)[C@H](CCN)NC(=O)[C@@H](NC(=O)[C@H](CCN)OC(=O)Cc2ccc(-c3ccccc3)cc2)C(C)O)CCNC(=O)[C@H](C(C)O)NC(=O)[C@H](CCN)NC(=O)[C@H](CCN)NC1=O (stereo partly drawn) [Example 2] (X8-[Thr(3ξ)][Dab][Dab][Dab][dF]L[Dab][Dab][Thr(3ξ)]; lactam 3-C) | 4 | 8 | 2 | 

Now from value to compound, other results behind:

Antibacterial activity (MIC) P. aeruginosa PAE 1001 ([1]; PAE 1001, 24 h) [µg/mL] | Antibacterial activity (MIC) E. coli WECO 1003 ([2]; WECO 1003, 24 h) [µg/mL] | Antibacterial activity (MIC) K. pneumoniae KPN1004 ([3]; KPN1004, 24 h) [µg/mL] | SMILES | other results
8 | 8 | >32 | CC(=O)O[C@@H](CCN)C(=O)N[C@H](C(=O)N[C@@H](CCN)C(=O)N[C@H]1CCNC(=O)[C@H](C(C)O)NC(=O)[C@H](CCN)NC(=O)[C@H](CCN)NC(=O)[C@H](CC(C)C)NC(=O)[C@@H](Cc2ccccc2)NC(=O)[C@H](CCN)NC1=O)C(C)O (stereo partly drawn) [Example 43] (X7-[Thr(3ξ)][Dab][Dab][Dab][dF]L[Dab][Dab][Thr(3ξ)]; lactam 3-C) | 
4 | 1 | 4 | CCC(C)(C)C(=O)OCCC(=O)N[C@@H](CN)C(=O)N[C@H](C(=O)N[C@@H](CCN)C(=O)N[C@H]1CCNC(=O)[C@H](C(C)O)NC(=O)[C@H](CCN)NC(=O)[C@H](CCN)NC(=O)[C@H](CC(C)C)NC(=O)[C@@H](Cc2ccccc2)NC(=O)[C@H](CCN)NC1=O)C(C)O (stereo partly drawn) [Example 35] (X1-[Dap][Thr(3ξ)][Dab][Dab][Dab][dF]L[Dab][Dab][Thr(3ξ)]; lactam 4-C) | 
>32 | >32 | >32 | CC(C)C[C@@H]1NC(=O)[C@@H](Cc2ccccc2)NC(=O)[C@H](CCN)NC(=O)[C@@H](NC(=O)[C@H](CCN)NC(=O)[C@@H](N)[C@@H](C)O)CCNC(=O)[C@H]([C@@H](C)O)NC(=O)[C@H](CCN)NC(=O)[C@H](CCN)NC1=O [Reference Example 40, Polymyxin B nonapeptide, reference compound] (H-T[Dab][Dab][Dab][dF]L[Dab][Dab]T; lactam 3-C) | HK-2 cytotoxicity class [8]: Class 4; IC50 [8]: > 200 µM
4 | 4 | 4 | CCC(C)(C)C(=O)OCCC(=O)O[C@@H](CCN)C(=O)N[C@H](C(=O)N[C@@H](CCN)C(=O)N[C@H]1CCNC(=O)[C@H](C(C)O)NC(=O)[C@H](CCN)NC(=O)[C@H](CCN)NC(=O)[C@H](CC(C)C)NC(=O)[C@@H](Cc2ccccc2)NC(=O)[C@H](CCN)NC1=O)C(C)O (stereo partly drawn) [Example 34] (X9-[Thr(3ξ)][Dab][Dab][Dab][dF]L[Dab][Dab][Thr(3ξ)]; lactam 3-C) | 
